Experimental data from PubChem BioAssay (NCI).
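All cell lines were grown in 96-well plates and treated with compound for 48 hours. Here, GI50 denotes the concentration required for 50% inhibition of growth. TGI marks complete inhibition of growth.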

Tests used:
Test in all cases: NCI tumour cell line growth inhibition, 48 h
A549 NSCLC = system: A549 NSCLC
KM12 colon = system: KM12 colon
SW-620 colon = system: SW-620 colon
NCI-H226 lung = system: NCI-H226 lung
NCI-H460 lung = system: NCI-H460 lung
BT-549 breast = system: BT-549 breast
MOLT-4 leukemia = system: MOLT-4 leukemia
ACHN renal = system: ACHN renal
MALME-3M melanoma = system: MALME-3M melanoma
CAKI-1 renal = system: CAKI-1 renal

Compound	GI50 (A549 NSCLC)	TGI (A549 NSCLC)	GI50 (KM12 colon)	TGI (KM12 colon)	GI50 (SW-620 colon)	TGI (SW-620 colon)	GI50 (NCI-H226 lung)	TGI (NCI-H226 lung)	GI50 (NCI-H460 lung)	TGI (NCI-H460 lung)	GI50 (BT-549 breast)	TGI (BT-549 breast)	GI50 (MOLT-4 leukemia)	TGI (MOLT-4 leukemia)	GI50 (ACHN renal)	TGI (ACHN renal)	GI50 (MALME-3M melanoma)	TGI (MALME-3M melanoma)	GI50 (CAKI-1 renal)	TGI (CAKI-1 renal)
C=C1C(=O)O[C@H]2[C@H]1CC/C(COC(=O)C(=O)c1c[nH]c3ccc(Cl)cc13)=C\CC[C@@]1(C)O[C@@H]21	2.52 µM	6.03 µM	3.21 µM	11.6 µM	1.67 µM	10.3 µM	1.74 µM	3.31 µM	2.45 µM	5.93 µM	1.38 µM	3.19 µM	0.778 µM	5.47 µM	1.32 µM	2.7 µM	1.74 µM	3.47 µM	2.81 µM	10.9 µM
COC(=O)C1=CO[C@@H](OC2OC(CO)C(O)C(O)C2O)[C@@H]2[C@H](C)[C@@H](O)[C@@H](O)[C@]12O (some centres not stated)	–	> 100 µM	–	> 100 µM	–	> 100 µM	–	> 100 µM	–	–	–	> 100 µM	–	> 100 µM	–	> 100 µM	–	> 100 µM	–	> 100 µM
Cc1[nH]c(=O)nc(N/N=C/c2ccc(Cl)cc2)c1C(=O)Nc1ccc(Cl)cc1	–	> 63.1 µM	–	> 100 µM	–	> 89.3 µM	–	> 100 µM	–	39.7 µM	–	> 100 µM	–	> 91.9 µM	–	> 89.2 µM	–	55.2 µM	–	> 90.9 µM
C=C1[C@@H](O)C[C@H]2C(C)(C)C[C@H](Cl)C[C@]2(C)[C@H]1C[C@H](O)[C@H]1CC(=O)NC1=O	0.0117 µM	0.145 µM	< 0.012 µM	0.441 µM	0.0114 µM	4.94 µM	0.0218 µM	0.19 µM	< 0.01 µM	0.29 µM	0.0265 µM	0.155 µM	< 0.01 µM	–	0.0166 µM	0.176 µM	< 0.01 µM	0.0632 µM	0.0418 µM	1.59 µM
Cc1ccc(S(=O)(=O)NNC(C[N+](=O)[O-])c2ccccc2)cc1 (configuration not stated)	–	> 100 µM	–	> 100 µM	–	> 100 µM	–	90 µM	–	45.1 µM	–	34.3 µM	–	> 100 µM	–	40.9 µM	–	71.3 µM	–	47.7 µM
COc1cc2c(c(OC)c1OC)C(=O)c1c-2n(CCCN=[N+]=[N-])c(=O)c2cc([N+](=O)[O-])ccc12	> 100 µM	> 100 µM	> 100 µM	> 100 µM	> 100 µM	> 100 µM	> 100 µM	> 100 µM	58.2 µM	> 100 µM	27.3 µM	> 100 µM	> 100 µM	> 100 µM	–	–	–	–	60.6 µM	> 100 µM
Clc1ccc(-c2nc(C(Cl)Cl)nc3cc(-c4ccccc4)nn23)cc1	0.875 µM	2.34 µM	0.884 µM	2.89 µM	1.01 µM	> 50 µM	> 50 µM	> 50 µM	0.787 µM	2.15 µM	> 50 µM	> 50 µM	1.74 µM	> 50 µM	–	–	2 µM	> 50 µM	–	–
Cc1ccc(S(=O)(=O)N[C@@H](Cc2ccccc2)C(=O)CCl)cc1	42.6 µM	> 100 µM	18.2 µM	38 µM	10.2 µM	59.4 µM	–	–	21.8 µM	> 100 µM	6.64 µM	24 µM	1.99 µM	> 100 µM	13 µM	28.1 µM	18.1 µM	40 µM	16.7 µM	34.7 µM
CCOc1ccc2c(c1)C(=O)c1c-2n(CCCN)c(=O)c2cc([N+](=O)[O-])ccc12	0.137 µM	1.13 µM	0.532 µM	2.1 µM	0.0516 µM	1.36 µM	1.22 µM	3.26 µM	–	–	0.473 µM	1.62 µM	–	–	0.0101 µM	1.17 µM	0.574 µM	2.37 µM	0.0112 µM	1.14 µM
OCC#CCCCCOCC#Cc1ccccc1C#CCOCCCCC#CCO	39.8 µM	> 100 µM	19.6 µM	40.5 µM	21.9 µM	50.9 µM	23.7 µM	59 µM	31.3 µM	> 100 µM	16.8 µM	41.2 µM	14.8 µM	> 100 µM	21.7 µM	58.7 µM	–	–	27.2 µM	64.8 µM
C[C@@H]1CC[C@@H]2[C@@H]1[C@H](OC(=O)c1ccc3ccccc3c1)[C@]1(C3CCCCC3)C[C@@H](OC(=O)CO)[C@@]2(C)O1	8.12 µM	21.7 µM	11.1 µM	26.5 µM	13 µM	30.4 µM	11.6 µM	26.2 µM	9.27 µM	23.7 µM	0.0714 µM	1.56 µM	5.16 µM	21.3 µM	–	–	16.5 µM	32.3 µM	0.0391 µM	10.9 µM
CCCCCCCC(=O)NS(=O)(=O)c1ccccc1	–	> 100 µM	–	> 100 µM	–	> 100 µM	–	–	–	> 100 µM	–	> 100 µM	–	> 100 µM	–	> 100 µM	–	> 100 µM	–	> 100 µM
CCOC(=O)C(O)Cc1cnc2ccccc2n1 (configuration not stated)	–	> 100 µM	–	> 100 µM	–	> 100 µM	–	–	–	> 100 µM	–	> 100 µM	–	> 100 µM	–	> 100 µM	–	> 100 µM	–	> 100 µM
COc1ccc(C2SCC(=O)N2NC(=O)C(O)c2ccccc2)cc1 (configuration not stated)	> 100 µM	> 100 µM	> 100 µM	> 100 µM	> 100 µM	> 100 µM	> 100 µM	> 100 µM	> 100 µM	> 100 µM	> 100 µM	> 100 µM	> 100 µM	> 100 µM	> 100 µM	> 100 µM	–	–	> 100 µM	> 100 µM
Cc1cccc(C)c1NC(=O)CCCC(=O)C(C#N)c1ccc(Cl)cc1 (configuration not stated)	–	> 100 µM	–	> 100 µM	–	> 100 µM	–	> 100 µM	–	> 100 µM	–	–	–	> 100 µM	–	> 100 µM	–	> 100 µM	–	> 100 µM
CN(N=O)C(=O)Nc1ccc(C(=O)O)cc1	–	> 100 µM	–	> 100 µM	–	> 100 µM	–	> 100 µM	–	> 100 µM	–	> 100 µM	–	> 100 µM	–	> 100 µM	–	–	–	> 100 µM

Compound	GI50 (A549 NSCLC)	TGI (A549 NSCLC)	GI50 (KM12 colon)	TGI (KM12 colon)	GI50 (SW-620 colon)	TGI (SW-620 colon)	GI50 (NCI-H226 lung)	TGI (NCI-H226 lung)	GI50 (NCI-H460 lung)	TGI (NCI-H460 lung)	GI50 (BT-549 breast)	TGI (BT-549 breast)	GI50 (MOLT-4 leukemia)	TGI (MOLT-4 leukemia)	GI50 (ACHN renal)	TGI (ACHN renal)	GI50 (MALME-3M melanoma)	TGI (MALME-3M melanoma)	GI50 (CAKI-1 renal)	TGI (CAKI-1 renal)
COC(=O)[C@@H]1[C@H](O)[C@H](C)[C@H](O)[C@H](C)/C=C\C=C(C)C(=O)Nc2c(C)c(OC(C)=O)c3c(c2O)C(=O)C(C)=C2OCOC(=C23)C(C)=C[C@@](C)(O)[C@H](O)[C@@H](C)[C@H]1OC(C)=O	–	–	–	> 100 µM	–	> 100 µM	–	> 100 µM	–	–	–	> 100 µM	–	> 100 µM	–	> 100 µM	–	> 100 µM	–	–
O=C([CH-]C(=O)c1ccccc1)c1ccccc1.[CH3-].[CH3-].[CH3-].[Sn+4]	17.1 µM	> 100 µM	18.1 µM	> 100 µM	12.3 µM	26 µM	6.62 µM	65.7 µM	6.89 µM	> 100 µM	–	–	3.18 µM	13.6 µM	21 µM	> 100 µM	10.7 µM	29.6 µM	13.6 µM	> 100 µM
COc1ccccc1Nc1nc2ccccc2c2occc12	14.6 µM	41.4 µM	16.1 µM	> 50 µM	22.6 µM	> 50 µM	–	–	8.09 µM	18 µM	15.3 µM	32.1 µM	–	–	10.6 µM	24.8 µM	–	–	18 µM	> 50 µM
Oc1c(Cl)cc(CN(Cc2cc(Cl)c(O)c(Cl)c2)C2CCCCC2)cc1Cl	–	> 100 µM	–	> 100 µM	–	> 100 µM	–	–	–	> 100 µM	–	> 100 µM	–	> 100 µM	–	> 100 µM	–	> 100 µM	–	> 100 µM
Cc1cccc(Cl)c1NC(=O)c1cccc([N+](=O)[O-])c1O	–	> 100 µM	–	66 µM	–	> 100 µM	–	95.9 µM	–	> 100 µM	–	–	–	> 100 µM	–	> 100 µM	–	84.7 µM	–	> 100 µM
Cc1cccc2c(N=Nc3ccccc3[N+](=O)[O-])c(O)[nH]c12	–	> 61.7 µM	–	> 58.6 µM	–	> 74.6 µM	–	> 39.7 µM	–	30.6 µM	–	> 74.1 µM	–	> 100 µM	–	18.8 µM	–	–	–	16.3 µM
O=[N+]([O-])c1ccc2nc3ccscc-3c2c1	–	89.9 µM	–	83.6 µM	–	> 100 µM	–	> 100 µM	–	49.4 µM	–	–	–	> 100 µM	–	> 100 µM	–	> 100 µM	–	26.2 µM
Cc1cc(S(=O)(=O)Nc2nc3ccccc3[nH]2)c(SCc2ccccc2)cc1Cl	> 100 µM	> 100 µM	40.4 µM	> 100 µM	> 100 µM	> 100 µM	43.8 µM	> 100 µM	> 100 µM	> 100 µM	> 100 µM	> 100 µM	36.4 µM	85.6 µM	32.8 µM	> 100 µM	–	–	2.1 µM	6.1 µM
O=c1oc2c(cc1-c1ccccc1)C(O)Oc1ccccc1-2 (configuration not stated)	7.84 µM	95.8 µM	3.04 µM	23.4 µM	4.37 µM	> 100 µM	28.8 µM	> 100 µM	4.12 µM	> 100 µM	17.4 µM	> 100 µM	–	–	20.4 µM	> 100 µM	9.19 µM	58.5 µM	5.09 µM	> 100 µM
CC(=O)Oc1ccccc1C(=O)NCCC[Se]C#N	1.84 µM	3.6 µM	2.84 µM	16.7 µM	3.47 µM	–	2.06 µM	5.62 µM	1.69 µM	4.52 µM	–	–	2.46 µM	8.53 µM	2.29 µM	4.3 µM	1.72 µM	3.62 µM	1.97 µM	3.94 µM
CC(C)(C)c1cc(-c2c3nc(c(-c4cc(C(C)(C)C)cc(C(C)(C)C)c4)c4ccc([nH]4)c(-c4cc(C(C)(C)C)cc(C(C)(C)C)c4)c4nc(c(-c5cc(C(C)(C)C)cc(C(C)(C)C)c5)c5ccc2[nH]5)C=C4)C=C3)cc(C(C)(C)C)c1	–	> 100 µM	–	> 100 µM	–	> 100 µM	–	> 100 µM	–	> 100 µM	–	–	–	> 100 µM	–	> 100 µM	–	> 100 µM	–	> 100 µM
COc1ccc(C2CC(c3cccc(OC)c3)=NN2C(=O)c2cc(OC)c(OC)c(OC)c2)cc1 (configuration not stated)	2.25 µM	> 100 µM	0.717 µM	> 100 µM	0.881 µM	> 100 µM	–	> 100 µM	1.75 µM	> 100 µM	2.05 µM	> 100 µM	2.14 µM	> 100 µM	5.54 µM	> 100 µM	–	–	1.22 µM	> 100 µM
COc1cc2oc(-c3cccc(C(=O)Nc4ccc(C)cc4)c3)cc(=O)c2c(OC)c1OC	3.86 µM	> 100 µM	3.66 µM	> 100 µM	4.73 µM	> 100 µM	6.65 µM	> 100 µM	1.47 µM	> 100 µM	1.71 µM	54.5 µM	5.8 µM	> 100 µM	2.69 µM	> 100 µM	–	–	0.315 µM	3.22 µM
C=C(CN(C)Cc1ccccc1)c1ccc(C(=O)Nc2ccccc2N)cc1	5.19 µM	19.1 µM	1.23 µM	7.26 µM	6.08 µM	> 50 µM	–	–	19.9 µM	> 50 µM	1.48 µM	10.1 µM	–	–	–	–	–	–	3.43 µM	14.8 µM
COc1cc(/C=C2\NC(=S)C3Cc4c(OC)c(C)c(OC)c(OC)c4C2N3C)c(OC)c(C)c1OC (configuration not stated)	–	> 100 µM	–	> 100 µM	–	> 100 µM	–	> 100 µM	–	30 µM	–	–	–	> 100 µM	–	> 100 µM	–	> 100 µM	–	> 100 µM
